This passage reports Ki results from patent EP1140984B1, “SELECTIVE INHIBITORS OF MMP-12” (Aventis Pharmaceuticals Inc., priority 1998, dated 2000).

For orientation: Ki means a dissociation constant, usually derived from enzyme kinetics or from competition with a known ligand. Lower therefore signals higher affinity.

The target in one test is T1, MMP-2 (Homo sapiens, UniProt P08253).
T1 construct: made in house; host or cells: Pichia pastoris (strains KM71 / SMD1168, clone 24S; vector pHIL-D2)
T1 sequence (P08253 110-660): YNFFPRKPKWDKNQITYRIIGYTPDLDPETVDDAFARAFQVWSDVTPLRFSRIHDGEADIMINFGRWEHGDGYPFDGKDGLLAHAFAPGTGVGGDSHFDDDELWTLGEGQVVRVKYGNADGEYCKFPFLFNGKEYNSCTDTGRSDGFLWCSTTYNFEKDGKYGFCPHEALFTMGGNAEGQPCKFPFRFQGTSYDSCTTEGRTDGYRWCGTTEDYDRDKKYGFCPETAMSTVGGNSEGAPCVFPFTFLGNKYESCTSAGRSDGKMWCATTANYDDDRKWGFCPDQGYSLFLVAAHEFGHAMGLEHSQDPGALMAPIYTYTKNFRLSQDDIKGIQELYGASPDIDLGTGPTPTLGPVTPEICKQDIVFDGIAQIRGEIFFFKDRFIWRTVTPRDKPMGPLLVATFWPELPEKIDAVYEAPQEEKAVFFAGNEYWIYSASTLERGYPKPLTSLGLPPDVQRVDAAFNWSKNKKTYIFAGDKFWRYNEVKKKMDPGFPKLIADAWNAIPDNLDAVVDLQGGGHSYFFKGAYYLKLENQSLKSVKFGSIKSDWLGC
The test can be described thus: Determination of inhibition constant (Ki) for MMP-2, fluorogenic substrate assay. It is filed as biochemical. The following applies: substrate Mca-Pro-Leu-Gly-Leu-Dpa-Ala-Arg-NH2, 37°C, pH 7.6, [S] = 1 µM, [MMP-2] = 0.4 nM. From the text: Recombinant MMP-2 was purified from the fermentation broth of yeast Pichia pastoris that carries the integrated MMP-2 gene into its chromosome. In brief, the full-length cDNA for MMP-2 was obtained by reverse transcription of RNA from human melanoma A375M cell line by the reverse transcriptase polymerase chain reaction (RT-PCR) using sequence specific oligonucleotides. The nucleotide sequence was confirmed by Taq cycle sequencing. The cDNA was ligated into the Pichia pastoris expression vector pHIL-D2 in such a way that the expression of pro-MMP-2 is under the control of the methanol inducible alcohol oxidase promoter. The expression construct was digested with either SalI or NsiI and used to transform the Pichia pastoris strains KM71 and SMD1168. A large-scale culture of a selected clone designated 24S was performed in a high cell density fermentor and the recombinant MMP-2 was purified from the culture supernatant by gelatin-sepharose 4B (Pharmacia). The enzyme is sufficiently pure at this stage for routine measurement of inhibition. If desired, however, the enzyme may be further purified by AcA 44 gel filtration (Spectra).
The active MMP-2 was obtained by activation of proMMP-2 at 37°C for 1 h with 4-aminophenylmercuric acetate which was then removed by a Sephadex G-50 spin column. The enzyme is assayed using a fluorogenic substrate, Mca-Pro-Leu-Gly-Leu-Dpa-Ala-Arg-NH2, at 37°C in 2.0 mL of assay buffer containing 50 mM Tris, pH 7.6, 0.2 M sodium chloride, 50 mM calcium chloride, 0.02% Brij-35, and 50 µM β-mercaptoethanol. The increase in fluorescence is monitored (λex 328 nm, λem 393 nm). Substrate and inhibitor stock solutions are made in DMF. The enzyme is added at the last to start the reaction. For routine measurement of a Ki value for a reversible, competitive inhibitor, the initial rates in the presence of at least four inhibitor concentrations (two inhibitor concentrations above Ki and two below Ki) are measured using [S] = 1 µM (<<Km) and [MMP-2] = 0.4 nM. Under these conditions, the measured Ki, app is close to true Ki.

Another test concerns the target T2, MMP-3 (Homo sapiens, UniProt P08254).
T2 construct: The active MMP-3 was obtained by treatment of proMMP-3 with trypsin; endogenous in cells; host or cells: human rheumatoid synovial fibroblasts stimulated with macrophage-conditioned medium
The experiment in a line: Determination of inhibition constant (Ki) for MMP-3, fluorogenic substrate assay. It is filed as biochemical. Conditions: substrate Mca-Pro-Leu-Gly-Leu-Dpa-Ala-Arg-NH2, 37°C, pH 7.6, [S] = 1 µM, [MMP-3] = 1 nM. The method, then:
ProMMP-3 (EC 3.4.24.17; Stromelysin-1) was purified from culture medium of human rheumatoid synovial fibroblasts stimulated with macrophage-conditioned medium according to Okada, Y. et al., J. Biol. Chem. 261, 14245-14255 (1986). The active MMP-3 was obtained by treatment of proMMP-3 with trypsin (5 µg/mL) at 37°C for 30 minutes, followed by addition of soybean trypsin inhibitor (50 µg/mL). Aliquots of the activated MMP-3 were stored at -20°C.
The activated MMP-3 is assayed using a fluorogenic substrate, Mca-Pro-Leu-Gly-Leu-Dpa-Ala-Arg-NH2, Knight, C.G. et al., FEBS Lett. 296, 263-266 (1992), at 37°C in an assay buffer containing 50 mM Tris, pH 7.6, 0.2 M sodium chloride, 50 mM calcium chloride, and 0.02% Brij-35. The increase in fluorescence due to cleavage of Gly-Leu peptide bond by MMP-3 was monitored with Perkin-Elmer LS50B Fluorimeter (λex 328 nm, λem 393 nm, excitation slit 2.5, emission slit 10). Substrate and inhibitor stock solutions were made in DMF and 0.1% HCI-DMF, respectively. For determination of Ki values for MMP-3 inhibitors, a series of intermediate inhibitor solutions were prepared in 0.1% HCl-DMF and 1 or 2 µL of the diluted inhibitor solution was mixed with 1 µL of 2 mM substrate solution in DMF in a quartz cuvette containing 2 mL of assay buffer. The enzyme (10 µL of 0.2 µM MMP-3 dilution in assay buffer) was added at the last to start the reaction. For routine measurement of a Ki value for a reversible, competitive inhibitor, the initial rates in the presence of at least four inhibitor concentrations (two concentrations above Ki and two concentrations below Ki) were measured using [S] = 1 µM (<< Km) and [MMP-3] = 1 nM. Under these conditions, the measured Ki, app is close to true Ki.
The Ki for a competitive inhibitor is calculated using: v0/vi = (1 + [I]/Ki, app) and Ki = Ki, app/(1 + [S]/Km), where v0 is the initial rate in the absence of inhibitor, vi is the initial rate in the presence of inhibitor at the concentration of [I], [S] is the substrate concentration, and Km is the Michaelis constant. If slow binding is observed (i.e. if the approach to the binding equilibrium is slow), the final steady-state rate rather than the initial rate is taken as vi.

Each structure is given as a SMILES string. Where a name gives a salt, the structure may show the parent alone.

T2 sequence (P08254 100-477): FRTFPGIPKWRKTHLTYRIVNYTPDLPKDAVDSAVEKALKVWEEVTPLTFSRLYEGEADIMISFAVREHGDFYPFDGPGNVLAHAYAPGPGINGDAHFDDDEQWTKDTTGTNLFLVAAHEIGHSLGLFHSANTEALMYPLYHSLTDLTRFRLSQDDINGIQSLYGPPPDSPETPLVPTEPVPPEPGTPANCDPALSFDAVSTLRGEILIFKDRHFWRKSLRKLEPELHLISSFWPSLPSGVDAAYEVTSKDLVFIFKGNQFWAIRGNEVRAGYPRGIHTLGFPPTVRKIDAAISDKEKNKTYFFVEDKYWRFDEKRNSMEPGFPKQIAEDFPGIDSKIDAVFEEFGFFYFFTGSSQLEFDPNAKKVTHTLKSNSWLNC

As for `CC(C)C(S)C(=O)N[C@@H](CCCCN)C(=O)N[C@@H](Cc1ccccc1)C(=O)O` (stereo in doubt) [Example 5, (S)-2-Mercapto-3-methylbutyroyl-(L)-lysyl-(L)-phenylalanine trifluoroacetic acid salt], the figures for the Ki at MMP-2 and on MMP-3 were 1740 nM and 1550 nM, respectively.
On to `CCCC(S)C(=O)N[C@@H](CCc1ccccc1)C(=O)N[C@@H](Cc1ccccc1)C(=O)NC` (stereo partly drawn) [Example 6, (S)-2-Mercaptopentanoyl-(L)-homo-phenylalanyl-(L)-phenylalanine N-methyl amide], for which, on MMP-3, affinity was put at a Ki of 14 nM.
As to `CCCC(S)C(=O)N[C@@H](CCc1ccccc1)C(=O)N[C@@H](Cc1ccccc1)C(=O)O` (stereo partly shown) [Example 1, 2-Mercapto-pentanoyl-(L)-homo-phenylalanyl-(L)-phenylalanine], the Ki at MMP-2 came to 1800 nM; on MMP-3 it was 750 nM.
Taken in the same sequence, the figures for `CC(C)C[C@H](NC(=O)C(S)C(C)C)C(=O)N[C@@H](Cc1ccccc1)C(=O)O` (stereo in doubt) [Example 3, (S)-2-Mercapto-3-methylbutyroyl-(L)-leucyl-(L)-phenylalanine] were 784 nM and 1410 nM.
The matching figures for `CNC(=O)[C@H](Cc1ccccc1)NC(=O)[C@H](CCc1ccccc1)NC(=O)[C@@H](S)C(C)C` [Example 7, (S)-2-Mercapto-3-methylbutyroyl-(L)-homo-phenylalanyl-(L)-phenylalanine N-methyl amide]: 3.3 nM and 10 nM.
Consider `CC(C)[C@H](S)C(=O)N[C@@H](CCc1ccccc1)C(=O)N[C@@H](Cc1ccccc1)C(=O)O` [Example 2, (S)-2-Mercapto-3-methylbutyroyl-(L)-homo-phenylalanyl-(L)-phenylalanine], for which the Ki worked out at 731 nM at MMP-2 and 365 nM on MMP-3.
Taken in the same sequence, the figures for `CSCC[C@H](NC(=O)C(S)C(C)C)C(=O)N[C@@H](Cc1ccccc1)C(=O)O` (stereo in doubt) [Example 4, (S)-2-Mercapto-3-methylbutyroyl-(L)-methionyl-(L)-phenylalanine] were 798 nM and 449 nM.
